From patent US9024017B2, “Octahydro-cyclopentapyrrolyl antagonists of CCR2” (Janssen Pharmaceutica NV, priority 2012, dated 2015)

molecular target: T1, CCR2 (Homo sapiens, UniProt P41597); assay: MCP-1 Receptor Binding Assay in THP-1 Cells; settings: read-out: MCP1B_v3 IC50
T1 construct: host or cells: THP-1 (human monocytic cell line)
In short: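 Human monocytic THP-1 cells incubated 2 h at 30 °C with 0.5 nM 125I-MCP-1 and varying concentrations of test compound or unlabelled MCP-1. Cells filter-harvested and counted by scintillation; blank subtracted, compared with vehicle; nonspecific binding with 1 μM cold MCP-1.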

T1 sequence (P41597 whole entry): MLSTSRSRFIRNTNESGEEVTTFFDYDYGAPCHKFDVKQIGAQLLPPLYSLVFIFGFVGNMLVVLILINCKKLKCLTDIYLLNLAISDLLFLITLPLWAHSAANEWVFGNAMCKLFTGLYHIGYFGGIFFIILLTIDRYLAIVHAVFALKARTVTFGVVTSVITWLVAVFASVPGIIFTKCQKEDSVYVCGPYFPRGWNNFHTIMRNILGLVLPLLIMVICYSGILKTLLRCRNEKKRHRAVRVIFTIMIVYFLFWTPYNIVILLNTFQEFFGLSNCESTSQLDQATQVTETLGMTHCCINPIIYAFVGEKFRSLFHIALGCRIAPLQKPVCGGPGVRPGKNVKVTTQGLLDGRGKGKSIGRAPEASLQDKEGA

In order of rising IC50:
1. CO[C@@H]1COCC[C@@H]1N[C@@H]1C[C@H]2CN(C(=O)OCCC3CCOCC3)C[C@@]2(C(=O)N2CCc3ncc(C(F)(F)F)cc3C2)C1 [Example 43, (3aR,5R,6aR)-2-(Tetrahydro-2H-pyran-4-yl)ethyl 5-(((3S,4S)-3-methoxytetrahydro-2H-pyran-4-yl)amino)-3a-(3-(trifluoromethyl)-5,6,7,8-tetrahydro-1,6-naphthyridine-6-carbonyl)hexahydrocyclopenta[c]pyrrole-2(1H)-carboxylate]  0.03 µM
2. COC1COCCC1N[C@@H]1C[C@H]2CN(C(=O)NCC(C)C)C[C@@]2(C(=O)N2CCc3ncc(C(F)(F)F)cc3C2)C1 (relative stereo) [Example 15, (3aR,5R,6aR)-N-Isobutyl-5-(((3S*4S*)-(3-methoxytetrahydro-2H-pyran-4-yl)amino)-3a-(3-(trifluoromethyl)-5,6,7,8-tetrahydro-1,6-naphthyridine-6-carbonyl)hexahydrocyclopenta-[c]pyrrole-2(1H)-carboxamide]  0.11 µM
3. COC1COCCC1N[C@@H]1C[C@H]2CN(C(=O)CNC(=O)OC(C)(C)C)C[C@@]2(C(=O)N2CCc3ncc(C(F)(F)F)cc3C2)C1 (relative stereo) [Example 87, tert-Butyl (2-((3aR,5R,6aR)-5-(((3S*,4S*)-3-methoxytetrahydro-2H-pyran-4-yl)amino)-3a-(3-(trifluoromethyl)-5,6,7,8-tetrahydro-1,6-naphthyridine-6-carbonyl)hexahydrocyclopenta[c]pyrrol-2(1H)-yl)-2-oxoethyl)carbamate]  0.36 µM
4. C#CC(=O)N1C[C@@H]2C[C@@H](NC3CCOCC3OC)C[C@]2(C(=O)N2CCc3ncc(C(F)(F)F)cc3C2)C1 (relative stereo) [Example 73, 1-((3aR,5R,6aR)-5-(((3S*,4S*)-3-Methoxytetrahydro-2H-pyran-4-yl)amino)-3a-(3-(trifluoromethyl)-5,6,7,8-tetrahydro-1,6-naphthyridine-6-carbonyl)hexahydrocyclopenta-[c]pyrrol-2(1H)-yl)prop-2-yn-1-one]  0.36 µM
5. COc1ccc(COC(=O)N2C[C@@H]3C[C@@H](NC4CCOCC4OC)C[C@]3(C(=O)N3CCc4ncc(C(F)(F)F)cc4C3)C2)cc1 (relative stereo) [Example 61, (3aR,5R,6aR)-4-Methoxybenzyl 5-(((3S*,4S*)-3-methoxytetrahydro-2H-pyran-4-yl)amino)-3a-(3-(trifluoromethyl)-5,6,7,8-tetrahydro-1,6-naphthyridine-6-carbonyl)hexahydrocyclopenta-[c]pyrrole-2(1H)-carboxylate]  0.39 µM
